Entries after “also recorded” stand apart in the source; their conditions may differ. Like-named read-outs stand apart in the source and are kept apart here.
Experiments:
[1] = set-up: species or system Sprague-Dawley rats; details: rat, in vivo, iv
Protocol: A single dose intravenous pharmacokinetics study with N-(pyrazine) carbonyl-L-phenylalanine-L-leucine boronic acid (1) was conducted in Sprague-Dawley rats (140 to 280 g). Animals were assigned to 3 groups (6/sex in Groups 1 and 2; 9/sex in Group 3). Animals in groups 1, 2, and 3 received 0.03, 0.1 or 0.3 mg/kg of 1, respectively, in the same dose volume.
Blood samples (approximately 1.0 mL) were collected from the jugular vein of animals pre-dose and at approximately 10 and 30 min and 1, 3 and 24 h post-dose on Day 1.

20S proteasome [2] = test: Ratio of chymotryptic to tryptic activity, titration of inhibitor in human samples; type: biochemical
Protocol: The percent inhibition (%I) is then calculated according to the following equation: [formula]
μt=activation factor determined upon titration of the proteasome inhibitor. For the proteasome inhibitor 1, βt=1.28 in human samples.
Complete activation of the 20S roteasome is achieved within 10 minutes.
βt=activation factor determined upon titration of the proteasome inhibitor. For the proteasome inhibitor 1, βt=1.28 in human samples.

[3] = test system: 20S proteasome in rat white blood cell lysates; test: Ratio of chymotryptic to tryptic activity in rat white blood cell lysates; type: biochemical; details: fit of vc/vt
Text: Data was fitted as in Example 10, to give kc/kt=17.6± and βt=1.1±0.2 (FIG. 13).

20S proteasome [4] = test: Ex vivo 20S proteasome activity in peripheral white blood cells of mice after single intravenous administration; set-up: species or system female CD2-F1 mice and female BALB/c mice
Protocol: (§1) The amount of 20S proteasome activity in the test sample is calculated according to the following formula: [formula]
(§2) Dose formulations of 1 were prepared daily during the course of the study. Dilutions were prepared from a stock solution. The stock solution of 1 was made up in 98% saline (0.9%), 2% ethanol with 0.1% ascorbic acid. Dilutions of the stock were made in the same vehicle.
(§3) Drugs were administered in vehicle intravenously (IV) using a dose volume of 100 μL per mouse or 1.0 mL/kg in rats. Control groups were administered with the vehicle (98% saline [0.9%], 2% ethanol, 0.1% ascorbic acid). Animals were dosed with 1 as a single IV bolus given either once or on multiple occasions.
(§4) Following IV dosing with 1, blood was withdrawn at various time points and peripheral white blood cells were isolated.
The vehicle was […] [0.9%], 2% ethanol, 0.1% ascorbic acid. Blood samples were collected at 1.0 and 24 h following administration. Due to the blood volume required in the 20S proteasome activity assay, groups of five mice were sacrificed at the same time and their blood pooled to generate single data points.

20S proteasome [5] = test: Ex vivo 20S proteasome activity in peripheral white blood cells of rats after single intravenous administration; set-up: species or system female Wistar rats
Protocol: as §1, §2, §3, §4
Blood samples were collected at 1.0, 24 and 48 h following administration of 1.

20S proteasome [6] = test: Ex vivo 20S proteasome activity in peripheral white blood cells of rats after repeat intravenous administration
Protocol: as §1, §3
In an additional repeat dose study, male Sprague-Dawley rats (250 to 450 g; n=6 per group) were treated with twice weekly intravenous doses of 1 (0.01 to 0.35 mg/kg/day in a dose volume of 1.0 mL/kg) for two weeks. […] Blood samples were collected 1.0 h after the last dose for evaluation of 20S proteasome activity.

20S proteasome [7] = biological target: T1, 20S proteasome (Rattus norvegicus, UniProt P28075)
T1 sequence (P28075 60-263): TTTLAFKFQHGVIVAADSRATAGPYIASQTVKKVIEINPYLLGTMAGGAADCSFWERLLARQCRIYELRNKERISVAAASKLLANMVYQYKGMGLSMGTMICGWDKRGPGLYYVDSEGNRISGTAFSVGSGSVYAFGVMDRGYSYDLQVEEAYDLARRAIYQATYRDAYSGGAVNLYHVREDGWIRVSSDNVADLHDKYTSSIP
Protocol: In two studies, female Wistar rats (150 to 200 g) were administered a single intravenous dose of 1 (0.03, 0.1 and 0.3 mg/kg in a dose volume of 1.0 mL/kg). […] Tissue samples were collected from liver and brain at 1.0, 24 and 48 h following administration for evaluation of 20S proteasome activity.

20S proteasome [8] = test: Ex vivo 20S proteasome activity in primate white blood cells, twice weekly intravenous dosing for 4 weeks; set-up: species or system Cynomolgus monkeys
Protocol: Male and female Cynomolgus monkeys (2.2 to 3.5 kg) were assigned to four groups (5/sex/group). Each group received 0 (vehicle control), 0.045, 0.067 or 0.100 mg/kg/dose of 1 as a single intravenous injection in a dose volume of 0.3 mL/kg twice weekly for 4 weeks (days 1, 5, 8, 12, 15, 19, 22 and 26). […] Three males from the control, low- and mid-dose groups, two high-dose males, and three females/group were sacrificed at the end of treatment on Day 27. Two animals/sex/group were designated as recovery animals and received treatment for 4 weeks followed by 2 weeks of recovery; they were sacrificed on Day 41.
Blood was collected for 20S proteasome activity determination prior to treatment, at 1.0 h after dosing on Days 1, 8, 15 and 22, and at 1.0 h prior to dosing on Days 5, 12, 19 and 26; and on Days 31, 34, 38, and 41 (recovery sacrifice animals).

[9] = test system: purified 20S proteasome from rabbit reticulocytes (tryptic activity); test: Tryptic activity of purified 20S proteasome (Rs substrate, fluorometry)
Protocol: The assay is based upon the SDS-inducible chymotrypsin-like and trypsin-like activities of free 20S proteasome particles. It uses fluorometry to measure the rate at which the 20S proteasome hydrolyzes an amide bond in a small peptide substrate.
The Rs substrate is dissolved to 10 mM in DMSO. The Rs substrate buffer, containing 20 mM HEPES, 0.5 mM EDTA, 0.6% DMSO, and 60 μM Rs substrate, is prepared.
20 μL of a test sample is added to a cuvette containing 2 mL of Rs substrate buffer at 37° C., and the reaction is allowed to run for 10 minutes. Complete activation of the 20S proteasome is achieved within 10 minutes. Consistent results are obtained for readings taken after 4 minutes and up to 10 minutes. The maximum linear slope for at least 1 minute of data is measured. If the rate is less than 1 pmol AMC/sec, the measurement is repeated using 20 μL of the test sample in 800 μL Rs buffer.
(§5) Chymotryptic and tryptic assays were performed as described in Examples 3 and 5 at increasing concentrations of the proteasome inhibitor 1.
Chymotryptic and tryptic assays were performed as described in Examples 3 and 5 at increasing concentrations of the proteasome inhibitor 1. The data was fitted to vc/vt=kc/kt*(1−f)/(1−f+βt*f), where kc/kt=2.88±0.03, βt=1.38±0.05, and %I=f*100 (FIG. 12).

[10] = test system: purified 20S proteasome from rabbit reticulocytes (chymotryptic activity); test: Chymotryptic activity of purified 20S proteasome (Ys substrate, fluorometry)
Protocol: The assay is based upon the SDS-inducible chymotrypsin-like activity of free 20S particles. It uses fluorometry to measure the rate at which the 20S proteasome hydrolyzes an amide bond in a small peptide substrate. Measurement of this rate in the absence and in the presence of an inhibitor allows a determination of how enzyme is bound by inhibitor.
The Ys substrate is dissolved to 6 mM in DMSO. A 2% (2 g/100 mL) solution of SDS in MilliQ water is prepared in a glass bottle. The Ys substrate buffer, containing 20 mM HEPES, 0.5 mM EDTA, 0.035% SDS, 1% DMSO, and 60 μM Ys substrate, is prepared. The final pH of the Ys buffer is 8.0.
10 μL of a test sample is added to a cuvette containing 2 mL of Ys substrate buffer at 37° C., and the reaction is allowed to run for 10 minutes. Complete activation of the 20S proteasome is achieved within 10 minutes. Consistent results are obtained for readings taken after 4 minutes and up to 10 minutes. The maximum linear slope for at least 1 minute of data is measured. If the rate is less than 1 pmol AMC/sec, the measurement is repeated using 20 μL of the test sample.
as §5

20S proteasome [11] = biological target: T1, 20S proteasome; test: Ex vivo 20S proteasome activity in rat blood and tissues 1.0 h after intravenous administration (third study); set-up: from tissue; host or cells: rat liver and brain (Wistar); blood, brain, colon, liver, muscle, prostate, testes (Sprague-Dawley); species or system male Sprague-Dawley rats
Protocol: Blood and tissue samples were collected 1.0 h following administration for evaluation of 20S proteasome activity. The tissues collected were brain, colon, liver, muscle (gastrocnemius), prostate and testes.

[12] = alternate daily IV for 14 days, 24 h after last dose
[13] = daily IV for 7 days, 24 h after last dose
[14] = once weekly IV for 8 weeks, 24 h after last dose
[15] = inferred from absence of 20S proteasome inhibition
[16] = 1.0 h after single IV 0.1 and 0.3 mg/kg

CC(C)C[C@H](NC(=O)[C@H](Cc1ccccc1)NC(=O)c1cnccn1)B(O)O [compound 1, N-(pyrazine)carbonyl-L-phenylalanine-L-leucine boronic acid]
clearance from the blood [1]: rapidly cleared from the blood | time to peak concentration (Tmax) ([1]; 0.3 mg/kg): ≤ 10 min | βt (activation factor determined upon titration of the proteasome inhibitor) (20S proteasome [2]): 1.28 | βt (activation factor of tryptic activity) [3]: 1.1±0.2 | 20S proteasome activity in white blood cells (20S proteasome [4]; 1.0 h after single IV 0.1 to 3.0 mg/kg, all dose groups): significant (p<0.05) dose-related decrease | 20S proteasome activity in white blood cells (20S proteasome [4]; 24 h after single IV 0.1 to 3.0 mg/kg): starts to recover | inhibition of 20S proteasome activity in peripheral white blood cells (overall) (20S proteasome [4]; single intravenous injection, mice): dose-dependent and reversible inhibition | 20S proteasome activity in white blood cells (20S proteasome [5]; 1.0 h after single IV 0.03 to 0.3 mg/kg): significant (p<0.05) dose-related decrease | 20S proteasome activity in white blood cells (20S proteasome [5]; 24 h after single IV 0.03 to 0.3 mg/kg): smaller, but remained significant (p<0.05) in the higher dose groups | 20S proteasome activity in white blood cells (20S proteasome [5]; 48 h after single IV 0.03 to 0.3 mg/kg): no longer significantly decreased | inhibition of 20S proteasome activity in peripheral white blood cells (overall) (20S proteasome [5]; single intravenous injection, rats): dose-dependent and reversible inhibition | extent of 20S proteasome inhibition compared with single dose (20S proteasome [6]; 24 h after 7 daily IV doses): greater than that observed 24 h after administration of a single intravenous dose | 20S proteasome activity in white blood cells (20S proteasome [6]; [12]): significant dose-related decrease | dose groups with significant (p<0.05) decrease in 20S proteasome activity (20S proteasome [6]; [12]): ≥ 0.2 mg/kg | 20S proteasome activity in white blood cells (20S proteasome [6]; [13]): dose-related decrease | doses with significant inhibition of 20S proteasome activity (20S proteasome [6]; [13]): ≥ 0.05 mg/kg | 20S proteasome activity in white blood cells (20S proteasome [6]; [14]): significant (p<0.05) dose-related decrease | dose groups with significant (p<0.05) decrease in 20S proteasome activity (20S proteasome [6]; [14]): ≥ 0.1 mg/kg | 20S proteasome activity in white blood cells (20S proteasome [6]; twice weekly IV for 2 weeks (4 doses, 0.01 to 0.35 mg/kg/day), male Sprague-Dawley rats, 1.0 h after last dose): dose-related decrease | dose groups with significant (p<0.05) decrease in 20S proteasome activity (20S proteasome [6]; twice weekly IV for 2 weeks, male Sprague-Dawley rats, 1.0 h after last dose): ≥ 0.03 mg/kg | 20S proteasome activity in rat liver (20S proteasome [7]; 1.0 h after single IV 0.03, 0.1 and 0.3 mg/kg): significant (p<0.05) dose-related decrease | 20S proteasome activity in rat liver (20S proteasome [7]; 24 h after single IV, high dose group 0.3 mg/kg): smaller, but remained significant (p<0.05) in the high dose group | 20S proteasome activity in rat liver (20S proteasome [7]; 48 h after single IV): returned to baseline | penetration of 1 into brain tissue (20S proteasome [7]; [15]): lack of penetration | 20S proteasome inhibition in brain tissue (20S proteasome [7]; single IV 0.03, 0.1 and 0.3 mg/kg, 1.0, 24 and 48 h): No 20S proteasome inhibition was observed | clinical condition of high-dose male (20S proteasome [8]; 0.100 mg/kg/dose IV twice weekly, Day 26 after receiving 8 doses): sacrificed in moribund condition | white blood cell 20S proteasome activity (20S proteasome [8]; 1.0 h after dosing, 0.045, 0.067 or 0.100 mg/kg/dose IV twice weekly): significant and dose-related decrease | white blood cell 20S proteasome activity (20S proteasome [8]; 72 hours after dosing, prior to the subsequent dose): recovered | 20S proteasome activity in white blood cells of the moribund animal (20S proteasome [8]; high-dose male at sacrifice on Day 26 after 8 doses): low residual 20S proteasome activity | βt (activation factor of tryptic activity) ([9]; fit of vc/vt, purified 20S proteasome from rabbit reticulocytes): 1.38±0.05 | effect on tryptic activity ([9]; increasing concentrations of 1, same concentration range): activation; also recorded: activated | βc (factor for chymotryptic site activity of E I complex; 0 = total inhibition) [10]: 0 | effect on chymotryptic activity ([10]; increasing concentrations of 1): fully inhibits; also recorded: fully inhibitable | 20S proteasome activity in peripheral white blood cells, colon, liver, muscle (gastrocnemius), and prostate (20S proteasome [11]; [16]): Significant (p<0.05) dose-related decreases | 20S proteasome inhibition in brain and testes (20S proteasome [11]; [16]): No 20S proteasome inhibition was observed | penetration of 1 into brain and testes (20S proteasome [11]; [15]): lack of 1 penetration

Reference: patent US6613541B1, “Method for monitoring proteasome inhibitor drug action” (Millennium Pharmaceuticals, Inc., priority 1998, dated 2003)
